Laboratory results: the NIST ThermoML archive (doi:10.1021/je9005823)

Tests used:
[1] = xn = mol fraction of the nth substance listed; settings: 298.15 K, 101 kPa, Liquid; for viscosity: Capillary tube (Ostwald / Ubbelohde) method
[2] = refractive index (Na D-line) (dimensionless); xn = mol fraction of the nth substance listed; settings: 298.15 K, 101 kPa, Liquid
[3] = 298.15 K, 101 kPa, Liquid; for viscosity: Capillary tube (Ostwald / Ubbelohde) method
[4] = refractive index (Na D-line) (dimensionless); settings: 298.15 K; 101.33 kPa; Liquid

CCCCC(C)O (stereo unspecified) [2-hexanol] + CC(=O)c1ccccc1
Settings	mass density, [1] [kg/m3]	refractive index, [2]	viscosity, [1] [mPa·s]
x2 = 0	810.14	1.4116	4.1
x2 = 0.0902	827.84	1.4485	3.193
x2 = 0.1678	843.27	1.4782	2.658
x2 = 0.2536	860.63	1.5037	2.16
x2 = 0.34	878.39	1.5247	1.802
x2 = 0.4382	898.86	1.5425	1.506
x2 = 0.5395	920.38	–	1.344
x2 = 0.6451	943.23	–	1.273
x2 = 0.75	966.34	–	1.313
x2 = 0.8628	991.72	1.5505	1.399
x2 = 0.9511	1011.93	1.5394	1.556

CCCC(C)O (stereo unspecified) [pentan-2-ol] + CC(=O)c1ccccc1
x2 = 0
Settings	mass density [kg/m3]	refractive index	viscosity [mPa·s]
[1]	805.24	–	3.478
[2]	–	1.4045	–

CC(=O)c1ccccc1 [acetophenone] + CCCCCC(C)O
x1 = 1
Settings	mass density [kg/m3]	refractive index	viscosity [mPa·s]
[1]	1023.3	–	1.678
[2]	–	1.5308	–

CC(=O)c1ccccc1 [acetophenone] + CCCCC(C)O
x1 = 1
Settings	mass density [kg/m3]	refractive index	viscosity [mPa·s]
[1]	1023.3	–	1.678
[2]	–	1.5308	–

CC(=O)c1ccccc1 [acetophenone] + CC(C)O
Settings	mass density, [1] [kg/m3]	refractive index, [2]	viscosity, [1] [mPa·s]
x1 = 0.0892	813.69	1.3971	1.678
x1 = 0.1658	839.2	1.4181	1.503
x1 = 0.2517	865.44	1.4393	1.399
x1 = 0.3432	890.91	1.4601	1.354
x1 = 0.4297	913.04	1.4775	1.352
x1 = 0.5345	937.56	1.4953	1.367
x1 = 0.6466	961.31	1.5099	1.421
x1 = 0.7561	982.35	1.5195	1.484
x1 = 0.8635	1001.26	1.5255	1.556
x1 = 0.9568	1016.5	1.5276	1.626
x1 = 1	1023.3	1.5308	1.678

CCCCC(C)O (stereo unspecified) [2-hexanol]
Settings	mass density [kg/m3]	refractive index	viscosity [mPa·s]
[3]	810.14	–	4.1
[4]	–	1.4116	–

CCC(C)O (stereo unspecified) [butan-2-ol]
Settings	mass density [kg/m3]	refractive index	viscosity [mPa·s]
[3]	802.56	–	3.132
[4]	–	1.3946	–

CC(C)O [propan-2-ol]
Settings	mass density [kg/m3]	refractive index	viscosity [mPa·s]
[3]	780.98	–	2.044
[4]	–	1.3745	–
